Laboratory results as given in PMC7352977 (Cancers, 2020).

How the values were obtained:
Solubility in water = assay type: physicochemical
[1] = system: AsPC-1 pancreatic cancer cells (xenograft); assay: Tumor xenograft model, AsPC-1, nude mice; assay type: in vivo; settings: abdominal cavity
Protocol: Five were deployed per group.
The cells used in the cancer animal model used human-specific pancreatic cancer cell liquor AsPC-1, which was defrosted more than 2 weeks before the animal model was created to obtain stable cell alcohol conditions, and were incubated three times. The growth medium used for cell culture was used by adding 10% fetal bovine serum and 1% penicillin/streptomycin to the RPMI-1640 medium used for AsPC-1 cell lines. On the day of the production of the cancer animal model, AsPC-1 cell line was removed from the cell culture flask by 0.25% Trypsin/EDTA and washed twice with PBS. The cell line was finally harried to HBSS + matrigel (1:1). Since the number of cells to be used in the experiment was 1 × 10^6/head, the finally disheveled cell concentration was 1 × 10^7/mL. It was stored in ice until the test was used. In the case of cell transplantation, 100 μL was transplanted. The separation was performed when the average volume of the tumor had grown to more than 100 mm^3. A random separation of groups was conducted to ensure that the average tumor volume was equal in the day of separation, and the separation of groups was carried out into a total of three groups.

NCI-H23 = assay: Cell proliferation assay (CCK-8), NCI-H23; assay type: cell-based; settings: NCI-H23 (lung, KRAS G12C), 72 h, CCK-8, triplicate
Protocol: (§1) Cells (2 × 10^3/well, 100 μL final volume per well) for HCT116 and NCI-H460, 5 × 10^3 cells/well for SW480 and NCI-H23, and 1 × 10^4 cells/well for AsPC-1 cell lines were used in this assay (Table 4). All cells were allowed to attach for 24 h after plating, and the cells were treated with fresh media the next day. […] After the 72 h incubation, cell counting kit-8 (CCK-8) solution (10 μL/well) was added, and cells were incubated for a further 4 h at 37 °C CO2 incubator. The optical density (OD) of each well at 450 nm was measured by using the Microplate reader (BioTek, USA). Experiments were performed at least three times with representative data presented.

SW480 = assay: Cell proliferation assay (CCK-8), SW480; assay type: cell-based; settings: SW480 (colon, KRAS G12V), 72 h, CCK-8, triplicate
Protocol: as §1

AsPC-1 = assay: Cell proliferation assay (CCK-8), AsPC-1; assay type: cell-based, human; settings: AsPC-1 (pancreas, KRAS G12D), 72 h, CCK-8, triplicate
Protocol: as §1

A549 = assay: MTT, wild-type KRAS A549 cell line; assay type: cell-based; settings: A549, compared with other tumor cell lines
[2] = system: MEK/ERK signaling pathway; assay: Western blot analysis of MEK/ERK signaling, AsPC-1; assay type: cell-based, human; settings: AsPC-1, 24 and 48 h
Protocol: (§2) Cells were plated in a 100 mm cell culture dish and incubated under standard conditions (37 °C under a humidified atmosphere containing 5% CO2) in RPMI-1640 media with 10% fetal bovine serum, 100 μ/mL penicillin, and 100 μ/mL streptomycin (Welgene, Korea). […] After treatment of 24, 48, and 72 h, the cells were lysed using protein extraction solution PRO-PREPTM (iNtRON Biotechnology, Korea) containing a protease inhibitor cocktail for 30 min at 4 °C. After this, the cells were centrifuged at 15,115 x g for 30 min. Protein content in the supernatant was measured with Bradford protein assay using bovine serum albumin (BSA). The protein was separated by 10% SDS-PAGE and transferred onto an immobilon-P membrane (Millipore, USA). Membrane was blocked in ProNA Protein-free 5X general or phospho-block solution (TransLab, Korea) for 1 h at room temperature. The membrane was incubated with primary antibodies against phosphorylated (p)-MEK1/2 (Ser217/221), total (t)-MEK1/2, p-ERK1/2 (Thr202/Tyr204), and t-ERK1/2 (Cell Signaling Technology, USA) at 4 °C overnight, washed with 1X PBS containing 0.1% Tween (PBST) three times, and incubated with anti-IgG secondary antibodies (Santa Cruz Biotechnology, USA) in PBST for 1 h. The transferred protein band was visualized with EzWestLumi plus (ATTO corporation, Japan). Probing for ß-acitn was used as a loading control.

[3] = system: MEK/ERK signaling pathway; assay: Western blot analysis of MEK/ERK signaling, SW480; assay type: cell-based; settings: SW480, 24 and 48 h
Protocol: as §2

NCI-H460 = assay: Cell proliferation assay (CCK-8), NCI-H460; assay type: cell-based; settings: NCI-H460 (lung, KRAS Q61H), 72 h, CCK-8, triplicate
Protocol: as §1

KRAS wild-type = assay: [α-32P] GTP binding assay, KRAS wild-type; assay type: biochemical, human; settings: H-REV107 peptide, 30 °C
Protocol: His-tagged human KRAS wild-type and mutants (G12V, G12D, G12C, G13D, and Q61H) and H-REV107 were transformed into Escherichia coli BL21 (DE3) cells. Each individual colony was inoculated into […] of Luria-Bertani (LB) medium enriched with 10 μg/mL kanamycin, after which the bacteria were grown for 16 h at 37 °C. These cells were then added to 2 L of LB containing antibiotics and grown at 37 °C until the OD600 reached 0.5–0.6. The expression of the proteins was induced by 0.5 mM isopropyl-thio-β-D-1-thiogalactopyranoside (IPTG) at 25 °C, after which the bacterial cells were harvested by centrifugation at 3830 × g for 25 min at 4 °C, then disrupted by sonication in lysis buffer (50 mM HEPES (pH 7.5), 100 mM NaCl, and 2 mM MgCl2). The supernatant was subsequently incubated with Ni-NTA resin (BioRad) for 10 min. After washing, the bound protein was eluted from the beads with elution buffer (50 mM HEPES (pH 7.5), 500 mM NaCl, 2 mM MgCl2, and 400 mM imidazole). The eluted protein was further purified by fast protein liquid chromatography (FPLC) using a Superdex 200 10/300 GL column equilibrated with 50 mM HEPES (pH 7.5), 100 mM NaCl, and 2 mM MgCl2. The purity and identity of the proteins were determined by 15% SDS-PAGE. […]
In addition, the protein complex was incubated with [α-^32P] […] Protein-bound radioactive nucleotide was quantified by liquid scintillation counting.

HCT116 = assay: Cell proliferation assay (CCK-8), HCT116; assay type: cell-based; settings: HCT116 (colon, KRAS G13D), 72 h, CCK-8, triplicate
Protocol: as §1

- solubility in water (in words) (Solubility in water): highly soluble
- GI50 (in words) (NCI-H23): millimolar ranges
- GI50 (SW480): 358 µM
- GI50 (AsPC-1): 417 µM
- GI50 (in words) (NCI-H460): millimolar ranges
- GTP binding activity to KRAS wild-type, decreased to (KRAS wild-type): 12%
- GI50 (in words) (HCT116): millimolar ranges
Sequence: LYDVAGSDKY [H-REV107 peptide]
- growth rate of tumors, high concentration group (in words) ([1]; 200 mg/kg): lowest growth rate
- growth rate of tumors compared to Vehicle (in words) ([1]; H-REV107 peptide experimental group): lower growth rate of tumors
- tumor volume compared to Vehicle (in words) ([1]; all doses (50 and 200 mg/kg), day 3 to day 32 after inoculation): decrease
- effect on proliferation of wild-type KRAS A549 cell line (in words) (A549): higher concentration state of H-REV107 peptide had an effect on the proliferation
- expression level of total MEK/ERK protein (in words) [2]: little effect
- phosphorylation levels of MEK/ERK, tendency to decrease (in words) [2]: little
- expression level of total MEK/ERK protein (in words) [3]: little effect
- phosphorylation levels of MEK/ERK (in words) [3]: decrease the phosphorylation levels of MEK/ERK
